Measured values published in paper PMC2923621, “Gliadin Peptide P31-43 Localises to Endocytic Vesicles and Interferes with Their Maturation” (PLoS ONE, 2010).

Key:
CaCo-2 cells = assay: BrdU incorporation with or without Hrs-EGFP transfection; assay type: cell-based; conditions: serum starved 0.1% FCS, mean ± SD of three independent experiments
Description: We used the lipofectamine kit (Invitrogen, San Giuliano Milanese, Italy) according to the manufacturer's instructions to transfect all plasmids (Rab5-EGFP, Rab7-EGFP, Hrs-EGFP and Hrs-Ha). Briefly, CaCo-2 cells seeded on coverslips for 48 h were transfected with the plasmids for 16 h. The next day, transfected cells were pulsed and chased as described below or stained for Bromodeoxyuridine (BrdU) with a monoclonal antibody (Sigma-Aldrich, Milan, Italy) and total nuclei were identified by Hoechst staining. BrdU incorporation was performed as described elsewhere, briefly, CaCo-2 cells seeded on coverslips were transfected with Hrs-EGFP and serum starved in DMEM 0.1% foetal calf serum, antibiotics and glutamine for 30–48 h followed by 24 h treatment with gliadin peptides and/or growth factors. BrdU ([…], Boehringer) was added for one hour before fixing the samples. The cells fixed with paraformaldehyde and permeabilised with triton, were stained for BrdU as described and observed at the miscroscope (Axiophot microscope, Carl Zeiss MicroImaging, Inc.). Greater than 100 HRS-EGFP positive cells in several fields were evaluated for BrdU incorporation in each sample. The number of HRS-EGFP/BrdU positive cells was expressed as a proportion of the total Hoechst positive nuclei.

Hrs = target: T1, Hrs (Homo sapiens, UniProt O14964); assay: Subcellular fractionation and immunoblotting of endogenous Hrs; assay type: cell-based; conditions: CaCo-2 cells, western blot, three independent experiments
T1 construct: to quantify the amount of endogenous Hrs present in each compartment; endogenous in cells; host or cells: CaCo-2
T1 sequence (O14964 whole entry): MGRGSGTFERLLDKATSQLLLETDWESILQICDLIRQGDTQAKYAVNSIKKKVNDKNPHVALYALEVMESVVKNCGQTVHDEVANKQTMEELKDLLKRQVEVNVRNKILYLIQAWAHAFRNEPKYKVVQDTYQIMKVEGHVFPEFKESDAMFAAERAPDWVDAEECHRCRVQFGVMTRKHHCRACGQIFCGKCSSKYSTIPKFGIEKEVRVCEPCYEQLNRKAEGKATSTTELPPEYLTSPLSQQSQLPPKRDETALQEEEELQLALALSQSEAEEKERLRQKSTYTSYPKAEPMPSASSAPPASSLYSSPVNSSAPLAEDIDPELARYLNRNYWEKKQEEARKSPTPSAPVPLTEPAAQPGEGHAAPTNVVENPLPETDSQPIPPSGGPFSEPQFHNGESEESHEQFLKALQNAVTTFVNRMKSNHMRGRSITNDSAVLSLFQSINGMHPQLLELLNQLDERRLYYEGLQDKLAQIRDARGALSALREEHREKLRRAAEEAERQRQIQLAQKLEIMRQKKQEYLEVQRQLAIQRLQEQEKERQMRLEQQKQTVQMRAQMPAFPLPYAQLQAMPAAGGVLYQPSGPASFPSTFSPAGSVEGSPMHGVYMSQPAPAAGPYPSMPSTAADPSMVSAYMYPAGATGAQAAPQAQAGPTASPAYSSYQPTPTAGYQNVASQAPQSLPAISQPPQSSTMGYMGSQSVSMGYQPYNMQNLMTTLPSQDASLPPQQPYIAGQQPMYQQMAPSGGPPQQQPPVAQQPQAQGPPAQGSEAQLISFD
Description: Near-confluent Caco2 cells in a 90-mm dish were incubated with EGF and P31-43 at various times, after homogenization (10 mM Tris-HCl [pH 7.4], 1 mM EDTA, and the mixture of phosphatase and protease inhibitors) the nuclear fraction was eliminated by centrifugation. The soluble cytosolic and the membrane fraction were obtained by ultracentrifugation. Electrophoresis and immunoblotting were performed as described elsewhere. Briefly the proteins of the soluble cytosolic and the membrane fractions were separated by SDS-PAGE and incubated with anti-Hrs mouse monoclonal antibody (Alexis, Vinci-Biochem, Florence, Italy) or anti-EGFR rabbit polyclonal antibody (Cell Signaling Celbio, Milan Italy) or anti-tubulin mouse monoclonal antibody (SIGMA-Aldrich, Milan, Italy). Densitometric analysis was performed as before.

“EGF: growth factor used at 100 nanograms/ml as positive control” was tested, and the “BrdU incorporation (BrdU incorporating cells as percent of total cells)” value (CaCo-2 cells; CaCo-2 cells not expressing Hrs, 24 h treatment (peptides 70 micrograms/ml, EGF 100 nanograms/ml)) was 68.99%±7, the “BrdU incorporation (BrdU incorporating cells as percent of total cells)” value (CaCo-2 cells; Hrs-EGFP-transfected (Hrs-expressing) CaCo-2 cells, 24 h treatment) was 66.25%±9.53% and the “Amount of Hrs in the membrane fraction” value (Hrs; normalised to EGFR) was “did not affect Hrs concentration in either compartment”. For the same substance, the “Amount of Hrs in the cytosolic fraction” value (Hrs; normalised to tubulin) was “did not affect Hrs concentration in either compartment”.
